Results taken from ChEMBL document CHEMBL1201862, “PubChem BioAssay data set” (2004).
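Five concentrations, 48 hours, 96-well plates. GI50 = concentration required for 50% inhibition of growth.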 Calls of active or inactive are those of the source. Cut-off read from the data, not from the text of the source: active = GI50 up to about 1.1 µM and inactive = higher.

Key:
Assay in all cases: NCI anticancer screen, dose series, 48 h
786-0 = test system: 786-0
A498 = test system: A498
A549 = test system: A549
ACHN = test system: ACHN
BT-549 = test system: BT-549
CAKI-1 = test system: CAKI-1
CCRF-CEM = test system: CCRF-CEM
COLO 205 = test system: COLO 205
DLD-1 = test system: DLD-1
DMS-114 = test system: DMS-114
DMS-273 = test system: DMS-273
DU-145 = test system: DU-145
EKVX = test system: EKVX
HCC 2998 = test system: HCC 2998
HCT-116 = test system: HCT-116
HCT-15 = test system: HCT-15
HL-60 = test system: HL-60
HOP-18 = test system: HOP-18
HOP-62 = test system: HOP-62
HOP-92 = test system: HOP-92
HT-29 = test system: HT-29
Hs-578T = test system: Hs-578T
IGROV-1 = test system: IGROV-1
K562 = test system: K562
KM-20L2 = test system: KM-20L2
KM12 = test system: KM12
LOX IMVI = test system: LOX IMVI
LXFL 529 = test system: LXFL 529
M14 = test system: M14
M19-MEL = test system: M19-MEL
MCF7 = test system: MCF7
MDA-MB-231 = test system: MDA-MB-231
MDA-MB-435 = test system: MDA-MB-435
MDA-N = test system: MDA-N
MOLT-4 = test system: MOLT-4
Malme-3M = test system: Malme-3M
NCI-H226 = test system: NCI-H226
NCI-H23 = test system: NCI-H23
NCI-H460 = test system: NCI-H460
NCI-H522 = test system: NCI-H522
NCI/ADR-RES = test system: NCI/ADR-RES
OVCAR-3 = test system: OVCAR-3
OVCAR-4 = test system: OVCAR-4
OVCAR-5 = test system: OVCAR-5
OVCAR-8 = test system: OVCAR-8
PC-3 = test system: PC-3
RPMI-8226 = test system: RPMI-8226
RXF 393 = test system: RXF 393
RXF 631 = test system: RXF 631
SF-268 = test system: SF-268
SF-295 = test system: SF-295
SF-539 = test system: SF-539
SK-MEL-28 = test system: SK-MEL-28
SK-MEL-2 = test system: SK-MEL-2
SK-MEL-5 = test system: SK-MEL-5
SK-OV-3 = test system: SK-OV-3
SN12C = test system: SN12C
SNB-19 = test system: SNB-19
SNB-75 = test system: SNB-75
SNB-78 = test system: SNB-78
SR = test system: SR
SW-620 = test system: SW-620
T47D = test system: T47D
TK-10 = test system: TK-10
U-251 = test system: U-251
UACC-257 = test system: UACC-257
UACC-62 = test system: UACC-62
UO-31 = test system: UO-31
XF498 = test system: XF498

C=C1C(=O)OC2/C=C(CO)/C=C\C3OC3(C)CC(OC(=O)/C(C)=C/COC(C)=O)C12 (stereo not given)
GI50 (786-0): 1.97 µM (inactive) | GI50 (A498): 7.43 µM (inactive) | GI50 (A549): 11.9 µM (inactive) | GI50 (ACHN): 3.14 µM (inactive) | GI50 (BT-549): 1.57 µM (inactive) | GI50 (CAKI-1): 2.76 µM (inactive) | GI50 (CCRF-CEM): 1.26 µM (inactive) | GI50 (COLO 205): 1.6 µM (inactive) | GI50 (DLD-1): 0.773 µM (active) | GI50 (DMS-114): 4.35 µM (inactive) | GI50 (DMS-273): 1.97 µM (inactive) | GI50 (DU-145): 16.6 µM (inactive) | GI50 (EKVX): 3.78 µM (inactive) | GI50 (HCC 2998): 13.4 µM (inactive) | GI50 (HCT-116): 1.5 µM (inactive) | GI50 (HCT-15): 1.87 µM | GI50 (HL-60): 0.34 µM (active) | GI50 (HOP-18): 9.38 µM (inactive) | GI50 (HOP-62): 20 µM (inactive) | GI50 (HOP-92): 2.62 µM (inactive) | GI50 (HT-29): 2.52 µM (inactive) | GI50 (Hs-578T): 3.08 µM (inactive) | GI50 (IGROV-1): 7.8 µM (inactive) | GI50 (K562): 3.3 µM (inactive) | GI50 (KM-20L2): 4.7 µM (inactive) | GI50 (KM12): 5.28 µM (inactive) | GI50 (LOX IMVI): 1.34 µM (inactive) | GI50 (LXFL 529): 1.58 µM (inactive) | GI50 (M14): 2.3 µM (inactive) | GI50 (M19-MEL): 1.84 µM (inactive) | GI50 (MCF7): 3.15 µM (inactive) | GI50 (MDA-MB-231): 2.66 µM (inactive) | GI50 (MDA-MB-435): 2 µM (inactive) | GI50 (MDA-N): 1.75 µM (inactive) | GI50 (MOLT-4): 0.802 µM (active) | GI50 (Malme-3M): 1.77 µM (inactive) | GI50 (NCI-H226): 12.2 µM (inactive) | GI50 (NCI-H23): 3.08 µM (inactive) | GI50 (NCI-H460): 5.69 µM (inactive) | GI50 (NCI-H522): 0.692 µM (active) | GI50 (NCI/ADR-RES): 3.97 µM (inactive) | GI50 (OVCAR-3): 2.46 µM (inactive) | GI50 (OVCAR-4): 3.99 µM (inactive) | GI50 (OVCAR-5): 13.9 µM (inactive) | GI50 (OVCAR-8): 2.47 µM (inactive) | GI50 (PC-3): 10 µM (inactive) | GI50 (RPMI-8226): 0.716 µM (active) | GI50 (RXF 393): 1.85 µM (inactive) | GI50 (RXF 631): 2.74 µM (inactive) | GI50 (SF-268): 4.04 µM (inactive) | GI50 (SF-295): 14.8 µM (inactive) | GI50 (SF-539): 1.96 µM (inactive) | GI50 (SK-MEL-28): 1.73 µM (inactive) | GI50 (SK-MEL-2): 3.75 µM (inactive) | GI50 (SK-MEL-5): 5 µM (inactive) | GI50 (SK-OV-3): 17.8 µM (inactive) | GI50 (SN12C): 2.21 µM (inactive) | GI50 (SNB-19): 12.5 µM (inactive) | GI50 (SNB-75): 7.8 µM (inactive) | GI50 (SNB-78): 4.08 µM (inactive) | GI50 (SR): 0.56 µM (active) | GI50 (SW-620): 1.37 µM (inactive) | GI50 (T47D): 2.65 µM (inactive) | GI50 (TK-10): 5.16 µM (inactive) | GI50 (U-251): 3.95 µM (inactive) | GI50 (UACC-257): 2.37 µM (inactive) | GI50 (UACC-62): 2.2 µM (inactive) | GI50 (UO-31): 6.11 µM (inactive) | GI50 (XF498): 2.47 µM (inactive)

CC1CC2CC(=O)CC3(C1)C2CCCN3CCCO (stereo not given)
GI50 (786-0): > 100 µM (inactive) | GI50 (A498): > 100 µM (inactive) | GI50 (A549): > 100 µM (inactive) | GI50 (ACHN): > 100 µM (inactive) | GI50 (CAKI-1): > 100 µM (inactive) | GI50 (CCRF-CEM): > 100 µM (inactive) | GI50 (COLO 205): > 100 µM (inactive) | GI50 (DLD-1): > 100 µM (inactive) | GI50 (DMS-114): > 100 µM (inactive) | GI50 (DMS-273): > 100 µM (inactive) | GI50 (EKVX): > 100 µM (inactive) | GI50 (HCT-116): > 100 µM (inactive) | GI50 (HL-60): > 100 µM (inactive) | GI50 (HOP-18): > 100 µM (inactive) | GI50 (HOP-62): > 100 µM (inactive) | GI50 (HOP-92): > 100 µM (inactive) | GI50 (HT-29): > 100 µM (inactive) | GI50 (IGROV-1): > 100 µM (inactive) | GI50 (K562): > 100 µM (inactive) | GI50 (KM12): > 100 µM (inactive) | GI50 (LOX IMVI): > 100 µM (inactive) | GI50 (LXFL 529): > 100 µM (inactive) | GI50 (M14): > 100 µM (inactive) | GI50 (M19-MEL): > 100 µM (inactive) | GI50 (MOLT-4): > 100 µM (inactive) | GI50 (Malme-3M): > 100 µM (inactive) | GI50 (NCI-H226): > 100 µM (inactive) | GI50 (NCI-H23): > 100 µM (inactive) | GI50 (NCI-H460): > 100 µM (inactive) | GI50 (NCI-H522): > 100 µM (inactive) | GI50 (OVCAR-3): > 100 µM (inactive) | GI50 (OVCAR-4): > 100 µM (inactive) | GI50 (OVCAR-5): > 100 µM (inactive) | GI50 (OVCAR-8): > 100 µM (inactive) | GI50 (RPMI-8226): > 100 µM (inactive) | GI50 (RXF 393): > 100 µM (inactive) | GI50 (RXF 631): > 100 µM (inactive) | GI50 (SF-268): > 100 µM (inactive) | GI50 (SF-295): > 100 µM (inactive) | GI50 (SF-539): > 100 µM (inactive) | GI50 (SK-MEL-28): > 100 µM (inactive) | GI50 (SK-MEL-2): > 100 µM (inactive) | GI50 (SK-MEL-5): > 100 µM (inactive) | GI50 (SK-OV-3): > 100 µM (inactive) | GI50 (SN12C): > 100 µM (inactive) | GI50 (SNB-19): > 100 µM (inactive) | GI50 (SNB-75): > 100 µM (inactive) | GI50 (SNB-78): > 100 µM (inactive) | GI50 (SR): > 100 µM (inactive) | GI50 (SW-620): > 100 µM (inactive) | GI50 (TK-10): > 100 µM (inactive) | GI50 (U-251): > 100 µM (inactive) | GI50 (UACC-257): > 100 µM (inactive) | GI50 (UACC-62): > 100 µM (inactive) | GI50 (UO-31): > 100 µM (inactive) | GI50 (XF498): > 100 µM (inactive)
